IC50 data for one compound are collected here from PMC11451537, “P2X7 receptors exhibit at least three modes of allosteric antagonism” (Science Advances, 2024).

As a reminder, the IC50 is the concentration that gives 50% inhibition. Low readings indicate inhibition by little substance, high ones a need for much substance.

Common to all, as to type: cell-based
The target in one assay is T1, hP2X1 (Homo sapiens, UniProt P51575).
T1 construct: The hP2X1-WT, hP2X2-WT, hP2X3-WT, hP2X4-WT, and hP2X7-WT constructs used for electrophysiology are similarly unmodified full-length, wild-type receptor constructs; expressed in transfected cells; host or cells: Xenopus laevis oocytes injected with mRNA made from pcDNA3.1x
T1 sequence (P51575 1-399): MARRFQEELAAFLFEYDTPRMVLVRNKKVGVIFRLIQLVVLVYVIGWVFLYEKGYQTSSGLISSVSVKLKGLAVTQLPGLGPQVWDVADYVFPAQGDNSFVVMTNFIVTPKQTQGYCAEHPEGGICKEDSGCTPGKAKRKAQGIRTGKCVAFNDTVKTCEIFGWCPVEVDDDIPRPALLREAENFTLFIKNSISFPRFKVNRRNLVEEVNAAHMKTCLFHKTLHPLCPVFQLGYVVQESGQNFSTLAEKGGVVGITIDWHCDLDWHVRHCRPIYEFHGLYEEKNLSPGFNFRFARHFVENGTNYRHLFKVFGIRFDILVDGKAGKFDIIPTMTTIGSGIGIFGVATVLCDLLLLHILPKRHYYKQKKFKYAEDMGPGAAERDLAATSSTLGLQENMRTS
In words: TEVC inhibition dose-response (IC50), hP2X1 in Xenopus laevis oocytes. Conditions: 10 μM ATP, mean ± SD, triplicate. An excerpt:
(§1) To evaluate the inhibitory response of an antagonist for a dilution series, an initial excitatory signal was evoked at a subtype-specific concentration of ATP. Next, the antagonist was applied at a test concentration for 60 s and then coapplied at the same test concentration of the antagonist with the identical subtype-specific concentration of ATP. The antagonized signal was then normalized against the preceding excitatory signal evoked by ATP for each individual oocyte tested. The pre- and post-antagonist signals were evoked by 10 μM ATP for hP2X1, 10 μM ATP for hP2X2, 1 μM ATP for hP2X3, 50 μM ATP for hP2X4, and 100 μM ATP for P2X7. For the K297V mutation in rP2X7, pre- and post-antagonist signals were evoked by 300 μM ATP. Each dataset was then fit to a nonlinear regression named “[inhibitor] vs. response – Variable slope (four parameters)” in GraphPad Prism 9 to produce a sigmoidal curve and afford an IC50 value. Each singular condition was used to generate an average which is reported plus or minus its SD between three discrete trials.

A further assay concerns the target T2, hP2X2 (Homo sapiens, UniProt Q9UBL9).
T2 construct: The hP2X1-WT, hP2X2-WT, hP2X3-WT, hP2X4-WT, and hP2X7-WT constructs used for electrophysiology are similarly unmodified full-length, wild-type receptor constructs; expressed in transfected cells; host or cells: Xenopus laevis oocytes injected with mRNA made from pcDNA3.1x
T2 sequence (Q9UBL9 1-471): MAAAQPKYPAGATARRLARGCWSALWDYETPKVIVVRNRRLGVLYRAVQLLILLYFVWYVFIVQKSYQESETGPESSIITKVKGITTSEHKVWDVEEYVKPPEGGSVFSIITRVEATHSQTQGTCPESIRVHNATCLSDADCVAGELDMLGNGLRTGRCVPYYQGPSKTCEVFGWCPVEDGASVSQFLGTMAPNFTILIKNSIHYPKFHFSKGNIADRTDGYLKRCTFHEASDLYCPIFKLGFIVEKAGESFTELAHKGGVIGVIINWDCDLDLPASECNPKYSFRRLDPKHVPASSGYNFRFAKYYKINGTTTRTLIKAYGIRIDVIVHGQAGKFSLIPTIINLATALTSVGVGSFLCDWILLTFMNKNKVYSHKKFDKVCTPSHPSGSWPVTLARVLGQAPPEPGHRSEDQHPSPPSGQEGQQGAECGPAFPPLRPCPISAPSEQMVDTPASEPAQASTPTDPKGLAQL
In words: TEVC inhibition dose-response (IC50), hP2X2 in Xenopus laevis oocytes. Conditions: 10 μM ATP, mean ± SD, triplicate.
Description: as §1

For another assay, the target named is T3, hP2X3 (Homo sapiens, UniProt P56373).
T3 construct: The hP2X1-WT, hP2X2-WT, hP2X3-WT, hP2X4-WT, and hP2X7-WT constructs used for electrophysiology are similarly unmodified full-length, wild-type receptor constructs; expressed in transfected cells; host or cells: Xenopus laevis oocytes injected with mRNA made from pcDNA3.1x
T3 sequence (P56373 1-397): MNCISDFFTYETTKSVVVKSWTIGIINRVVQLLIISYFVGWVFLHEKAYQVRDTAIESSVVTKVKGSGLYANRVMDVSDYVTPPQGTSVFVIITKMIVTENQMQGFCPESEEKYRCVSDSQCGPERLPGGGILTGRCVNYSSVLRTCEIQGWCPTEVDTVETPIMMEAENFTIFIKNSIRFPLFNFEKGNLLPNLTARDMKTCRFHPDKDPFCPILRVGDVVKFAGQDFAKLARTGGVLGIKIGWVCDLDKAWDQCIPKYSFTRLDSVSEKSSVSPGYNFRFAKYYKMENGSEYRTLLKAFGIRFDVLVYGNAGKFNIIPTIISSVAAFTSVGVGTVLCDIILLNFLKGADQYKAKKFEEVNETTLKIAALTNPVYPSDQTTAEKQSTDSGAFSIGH
As to the kind of experiment: TEVC inhibition dose-response (IC50), hP2X3 in Xenopus laevis oocytes. The conditions noted are these: 1 μM ATP, mean ± SD, triplicate.
Description: as §1

In the next assay the target is T4, hP2X7 (Homo sapiens, UniProt Q99572).
T4 sequence (Q99572 1-595): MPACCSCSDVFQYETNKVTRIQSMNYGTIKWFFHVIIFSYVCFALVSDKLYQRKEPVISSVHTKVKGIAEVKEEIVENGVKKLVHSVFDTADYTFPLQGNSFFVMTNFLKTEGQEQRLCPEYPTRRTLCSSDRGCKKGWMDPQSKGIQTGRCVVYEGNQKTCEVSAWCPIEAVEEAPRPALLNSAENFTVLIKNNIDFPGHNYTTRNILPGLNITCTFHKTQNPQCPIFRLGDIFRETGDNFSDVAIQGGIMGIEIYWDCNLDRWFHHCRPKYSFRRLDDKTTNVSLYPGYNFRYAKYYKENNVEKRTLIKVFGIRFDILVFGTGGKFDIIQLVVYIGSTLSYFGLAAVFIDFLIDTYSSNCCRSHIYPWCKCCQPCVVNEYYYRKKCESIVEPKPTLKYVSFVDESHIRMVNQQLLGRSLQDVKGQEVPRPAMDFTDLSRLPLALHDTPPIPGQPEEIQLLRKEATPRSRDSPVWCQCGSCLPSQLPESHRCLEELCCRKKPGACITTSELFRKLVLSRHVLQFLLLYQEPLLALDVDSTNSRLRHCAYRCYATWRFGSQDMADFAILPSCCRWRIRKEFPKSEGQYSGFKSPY
As to the kind of experiment: TEVC inhibition dose-response (IC50), hP2X7 in Xenopus laevis oocytes. Also noted: hP2X4-WT, and hP2X7-WT constructs used for electrophysiology are similarly unmodified full-length, wild-type receptor constructs; expressed in transfected cells; host or cells: Xenopus laevis oocytes injected with mRNA made from pcDNA3.1x. The conditions noted are these: 100 μM ATP, mean ± SD, triplicate.
Description: as §1

SMILES strings stand for the structures.

Turning to `O=S(=O)(O)c1ccc(N=C2C=CC(=C(c3ccc(Nc4ccc(S(=O)(=O)O)cc4)cc3)c3ccc(Nc4ccc(S(=O)(=O)O)cc4)cc3)C=C2)cc1` [methyl blue], the IC50 on hP2X1 came out at 0.4 ± 0.1 µM; at hP2X2 it was 13 ± 2 µM; on hP2X3, 4 ± 1 µM; against hP2X7, 4 ± 2 µM.
